Source: patent US20220242905A1, “MODIFIED PEPTIDES AND THEIR USE” (UNIVERSITE DE MONTPELLIER, priority 2018, published 2022)
Values after ≈ are worked out from the molar mass of the structure shown.

Experiments:
[1] = test system: Enterococcus faecalis ATCC29121; assay type: cell-based; settings: for Minimal inhibitory concentration (MIC) E. faecalis ATCC29121: ATCC29121, 24 h; for Minimal bactericidal concentration (MBC) E. faecalis ATCC29121: value in bracket, 24 h at 37° C.
Method: (§1) Minimal inhibitory concentration (MIC) values and minimal bactericidal concentration (MBCs) values for ATC-peptides 1-9 were determined against both Gram-positive (Bacillus subtilis, Staphylococcus aureus, Enterococcus faecalis) and Gram negative (Escherichia coli, Pseudomonas aeruginosa) bacteria as well as a yeast (Candida albicans). Experiments were conducted in triplicate. For B. subtilis, compounds were tested against vegetative cells and spores, which are particularly resistant to the action of antimicrobial agents. MIC and MBCs values are shown Table 12. In addition, haemolytic properties of 1-9 were tested.
(§2) the antimicrobial performances of oligomers antimicrobial activity were determined on three Gram positive strains (Bacillus subtilis ATCC6633, Staphylococcus aureus ATCC6538 and Enterococcus faecalis ATCC29121), two Gram negative strains (Escherichia coli ATCC8739 and Pseudomonas aeruginosa ATCC9027) and one fungal strain (Candida albicans ATCC10231). Each bacterial strain was allowed to grow overnight on Trypto-Caseine-Soja agar (TSA, Difco) at 37° C., C. albicans was allowed to grow 48 h on a sabouraud medium (Difco) at 20-25° C. A fresh suspension at 10^8 CFU·mL^−1 was then prepared by inoculating the micro-organisms in a Tryptone-Sel solution. Concentration was monitored by measuring transmitted light at 620 nm or with the Mac Farland turbidity standard (Mac Farland=0.5≈10^8 CFU·mL^−1). Each suspension was then diluted in a doubly strong Mueller-Hinton (MH, Difco) broth to […]. Two-fold serial dilutions (100 μL) of oligomers in sterile water (pH adjusted between 7.4 and 7.7 with HCl and NaOH solutions) were mixed with microbial inoculum (100 μL) in NUNC sterile clear polystyrene flat-bottom 96-well plates. A 1/1 v/v oligomer solution/water mixture was used a negative control and a 1/1 vv water/microbial inoculum mixture was used a positive control. Plates were then incubated 24 h at 37° C. for bacteria and 48 h at 25° C. for C. albicans. Minimum Inhibitory Concentration (MIC) was determined as the lowest concentration inhibiting the growth of each micro-organism. […] Minimum Bactericidal Concentration (MBC) was determined as the lowest concentration that prevent the growth of more than one colony. Each assay was performed in a triple duplicate for each strain.

[2] = test system: Candida albicans ATCC10231; assay type: cell-based; settings: for Minimal inhibitory concentration (MIC) C. albicans ATCC10231: ATCC10231, 48 h; for Minimal bactericidal concentration (MBC) C. albicans ATCC10231: value in bracket, 48 h at 25° C.
Method: as §1, §2

[3] = test system: Staphylococcus aureus ATCC6538; assay type: cell-based; settings: for Minimal inhibitory concentration (MIC) S. aureus ATCC6538: ATCC6538, 24 h; for Minimal bactericidal concentration (MBC) S. aureus ATCC6538: value in bracket, 24 h at 37° C.
Method: as §1, §2

[4] = test system: Bacillus subtilis ATCC6633; assay type: cell-based; settings: for Minimal inhibitory concentration (MIC) B. subtilis ATCC6633: ATCC6633, 24 h; for Minimal bactericidal concentration (MBC) B. subtilis ATCC6633: value in bracket, 24 h at 37° C.
Method: as §1, §2

[5] = test system: Escherichia coli ATCC8739; assay type: cell-based; settings: for Minimal inhibitory concentration (MIC) E. coli ATCC8739: ATCC8739, 24 h; for Minimal bactericidal concentration (MBC) E. coli ATCC8739: value in bracket, 24 h at 37° C.
Method: as §1, §2

[6] = test system: Pseudomonas aeruginosa ATCC9027; assay type: cell-based; settings: for Minimal inhibitory concentration (MIC) P. aeruginosa ATCC9027: ATCC9027, 24 h; for Minimal bactericidal concentration (MBC) P. aeruginosa ATCC9027: value in bracket, 24 h at 37° C.
Method: as §1, §2

Hemolytic activity = assay type: cell-based, Human; settings: human, human red blood cell suspension; hRBCs, 1 h at 37° C.; read-out: HD50, dose required to lyse 50% of the red blood cells
Method: Procedure for measurements of hemolytic activity: Human red blood cells (hRBCs) were washed multiple times with phosphate-buffered saline (PBS) until a clear supernatant was obtained. The hRBCs suspension was made in PBS with a Packed Cell Volume of 5%, Two-fold serial dilutions (50 μL) of oligomers in sterile water (pH adjusted between 7.4 and 7.7 with HCl and NaOH solutions) were mixed with hRBCs suspension (50 μL) in clear polystyrene optical-bottom 96-well plates which were filmed and incubated for 1 h at 37° C. A 1/1 vv hRBCs solution/PBS mixture was used a negative control and a 1/1 vv hRBCs solution/1% (TRIS 50 mM pH=8.0+1% SDS) mixture was used a positive control for 100% hemolysis. The mixture was then centrifuged at 1500 g for 10 min at 5° C. Next, 50 μL of the supernatant was transferred into a second plate, and the absorbance was read at 490 nm using a BioRad iMark plate reader. The hemolysis percentage was calculated by the formula % hemolysis=[Absorbance (sample)−Absorbance (negative control)]/[Absorbance (positive control)−Absorbance (negative control)]×100%. Each assay was performed in a double duplicate. Hemolytic activity was determined or estimated with the Hemolytic Concentration leading to 50% of lysis of hRBCs (HC50).

Structure (SMILES) | Minimal inhibitory concentration (MIC) E. faecalis ATCC29121 [1] | Minimal inhibitory concentration (MIC) C. albicans ATCC10231 [2] | Minimal inhibitory concentration (MIC) S. aureus ATCC6538 [3] | Minimal inhibitory concentration (MIC) B. subtilis ATCC6633 [4] | Minimal inhibitory concentration (MIC) E. coli ATCC8739 [5] | Minimal inhibitory concentration (MIC) P. aeruginosa ATCC9027 [6] | HC50 at 1 h (Hemolytic activity) | Minimal bactericidal concentration (MBC) E. faecalis ATCC29121 [1] | Minimal bactericidal concentration (MBC) C. albicans ATCC10231 [2] | Minimal bactericidal concentration (MBC) S. aureus ATCC6538 [3] | Minimal bactericidal concentration (MBC) B. subtilis ATCC6633 [4] | Minimal bactericidal concentration (MBC) E. coli ATCC8739 [5] | Minimal bactericidal concentration (MBC) P. aeruginosa ATCC9027 [6]
CC(=O)N[C@@H](CCCCN)c1nc(C)sc1C(=O)N[C@@H](C)c1nc(CCCCN)sc1C(=O)N[C@@H](C)c1nc(C)sc1C(N)=O [Oligomer 1] | >150 µM | >150 µM | >150 µM | >150 µM | >150 µM | >150 µM | > 100 µM |  |  |  |  |  | 
CC(=O)N[C@@H](CCCCN)c1nc(C)sc1C(=O)N[C@@H](C)c1nc(CCCCN)sc1C(=O)N[C@@H](C)c1nc(C)sc1C(=O)N[C@@H](CCCCN)c1nc(C)sc1C(=O)N[C@@H](C)c1nc(CCCCN)sc1C(=O)N[C@@H](C)c1nc(C)sc1C(N)=O [Oligomer 2] | >150 µM | 62.5 µM (≈ 81 µg/mL) | >150 µM | 30 µM (≈ 38.9 µg/mL) | >150 µM | >150 µM | > 100 µM |  |  |  |  |  | 
CC(=O)N[C@@H](CCCCN)c1nc(C)sc1C(=O)N[C@@H](C)c1nc(CCCCN)sc1C(=O)N[C@@H](C)c1nc(C)sc1C(=O)N[C@@H](CCCCN)c1nc(C)sc1C(=O)N[C@@H](C)c1nc(CCCCN)sc1C(=O)N[C@@H](C)c1nc(C)sc1C(=O)N[C@@H](CCCCN)c1nc(C)sc1C(=O)N[C@@H](C)c1nc(CCCCN)sc1C(=O)N[C@@H](C)c1nc(C)sc1C(N)=O [Oligomer 3] | >150 µM | 10.4 µM (≈ 19.9 µg/mL) | >150 µM | 0.8 µM (≈ 1.53 µg/mL) | 5.2 µM (≈ 9.96 µg/mL) | 42 µM (≈ 80.5 µg/mL) | > 100 µM | (>150) μM | (10.4) μM | (>150) μM | (0.8) μM | (7.3) μM | (83) μM
CC(=O)N[C@@H](CCCCN)c1nc(C)sc1C(=O)N[C@@H](C)c1nc(CCCCN)sc1C(=O)N[C@@H](C)c1nc(C)sc1C(=O)N[C@@H](CCCCN)c1nc(C)sc1C(=O)N[C@@H](C)c1nc(CCCCN)sc1C(=O)N[C@@H](C)c1nc(C)sc1C(=O)N[C@@H](CCCCN)c1nc(C)sc1C(=O)N[C@@H](C)c1nc(CCCCN)sc1C(=O)N[C@@H](C)c1nc(C)sc1C(=O)N[C@@H](CCCCN)c1nc(C)sc1C(=O)N[C@@H](C)c1nc(CCCCN)sc1C(=O)N[C@@H](C)c1nc(C)sc1C(N)=O [Oligomer 4] | >150 µM | 3.7 µM (≈ 9.38 µg/mL) | 26 µM (≈ 65.9 µg/mL) | 0.5 µM (≈ 1.27 µg/mL) | 1.6 µM (≈ 4.06 µg/mL) | 3.9 µM (≈ 9.88 µg/mL) | > 100 µM | (>150) μM | (3.7) μM | (57) μM | (0.5) μM | (1.6) μM | (5.2) μM
CC(=O)N[C@@H](CCCCN)c1nc(C)sc1C(=O)N[C@@H](CC(C)C)c1nc(CCCCN)sc1C(=O)N[C@@H](C)c1nc(CC(C)C)sc1C(=O)N[C@@H](CCCCN)c1nc(C)sc1C(=O)N[C@@H](CC(C)C)c1nc(CCCCN)sc1C(=O)N[C@@H](C)c1nc(CC(C)C)sc1C(=O)N[C@@H](CCCCN)c1nc(C)sc1C(=O)N[C@@H](CC(C)C)c1nc(CCCCN)sc1C(=O)N[C@@H](C)c1nc(CC(C)C)sc1C(N)=O [Oligomer 6] | 6.2 µM (≈ 13.4 µg/mL) | 6.2 µM (≈ 13.4 µg/mL) | 5.2 µM (≈ 11.3 µg/mL) | 1.3 µM (≈ 2.82 µg/mL) | 8.3 µM (≈ 18 µg/mL) | 6.2 µM (≈ 13.4 µg/mL) | 23 µM | (6.2) μM | (6.2) μM | (5.2) μM |  | (8.3) μM | (6.2) μM
CC(=O)N[C@@H](CCCCN)c1nc(C)sc1C(=O)N[C@@H](CC(C)C)c1nc(CCCCN)sc1C(=O)N[C@@H](C)c1nc(CC(C)C)sc1C(=O)N[C@@H](CCCCN)c1nc(C)sc1C(=O)N[C@@H](CC(C)C)c1nc(CCCCN)sc1C(=O)N[C@@H](C)c1nc(CC(C)C)sc1C(=O)N[C@@H](CCCCN)c1nc(C)sc1C(=O)N[C@@H](CC(C)C)c1nc(CCCCN)sc1C(=O)N[C@@H](C)c1nc(CC(C)C)sc1C(=O)N[C@@H](CCCCN)c1nc(C)sc1C(=O)N[C@@H](CC(C)C)c1nc(CCCCN)sc1C(=O)N[C@@H](C)c1nc(CC(C)C)sc1C(N)=O [Oligomer 7] | 10.4 µM (≈ 29.9 µg/mL) | 25 µM (≈ 71.8 µg/mL) | 16.7 µM (≈ 47.9 µg/mL) | 4.2 µM (≈ 12.1 µg/mL) | 14.6 µM (≈ 41.9 µg/mL) | 14.6 µM (≈ 41.9 µg/mL) | > 100 µM | (12.5) μM | (25) μM | (25) μM | (6.2) μM | (16.5) μM | (19) μM
